Data reported in PMC5554537 (Frontiers in Pharmacology, 2017).
Where two headings read alike, the source gives them in different places.

What was measured:
[1] = Plasma, liver and brain PK after i.p. dosing with M14; assay type: in vivo; conditions: i.p. M14 135 mg/kg; for Cmax / half-life: NIH-III nude, mouse, in vivo, ip, 135 mg/kg; for Cmax: read-out: Cmax; for half-life: read-out: Terminal T1/2
Experimental: Concentration-time data were analyzed by non-compartmental analysis using Phoenix WinNonlin (ver 6.4, Build 6.4.0768 Pharsight, United States); all AUC values were extrapolated to infinity using the linear trapezoidal rule. A compartmental model for plasma PK after dosing with SN30000 or M14 was fitted using Phoenix NLME v1.3 with random effects on the metabolite volumes of distribution, and temperature effects based on the observed body temperature at the last measurement time. Temperature effects were added or removed until there was no significant change in the log likelihood. Model fits were further assessed by visual inspection of the residuals and predicted PK.

CHO/POR cells = test: Redox cycling: non-respiratory O2 consumption and H2O2 generation; assay type: cell-based; conditions: rotenone-inhibited aerobic CHO/POR cells, cumulative addition
Experimental: The Chinese hamster ovary cell line 51D1.3 (herein called CHO) and a stable transfectant expressing a soluble form of human P450 oxidoreductase (51D1.3/sPOR, herein called CHO/POR) ([Gu et al., 2009]), were grown in spinner flasks in αMEM plus 5% fetal bovine serum. Late log phase cultures were harvested by centrifugation, resuspended at 5 × 10^5 cells/mL in phenol red-free high-glucose DMEM (Invitrogen) supplemented with 4 mM Glutamax-1, 1 mM sodium pyruvate and 5% FBS. Stirred cell suspensions (2 mL) were transferred to an OXYBOROS O2K oxygraph for simultaneous polarographic measurement of non-respiratory O2 consumption and fluorimetric measurement of H2O2 generation as previously ([Hunter et al., 2012]). Bovine liver superoxide dismutase (10 U), horseradish peroxidase (10 U), Amplex UltraRed (50 nmol) and rotenone (1 nmol), all from Molecular Probes Invitrogen (Eugene, OR), were injected and cumulative drug additions (from saline stock solutions) were made every ∼5 min once endogenous rates had stabilized. Signals were recorded every 2 s, and flux derivatives were estimated ∼2 min after each addition using a Savitzky–Golay smoothing filter (40 data point window) in DATLAB version 4.3.
Supplementary Figure 4. Time-dependent changes in oxy gen consu mption and H2O2 formation rates induced by SN30000 in rotenone-inhibited CHO/POR cell suspensions, monitored with an OXYBOROS O2K oxygraph. Conditions of the experiment were identical to Fig. 5 except that SN30000 was added as a single bolus to separate cell suspension, rather than by cu mulative addition. A: Representative traces for oxygen consu mption and H2O2 formation rates for a single culture when SN30000 was added to a final concentration of 600 µM, at 4 min. Peak rates were established within 2 min, followed by a decline to a new steady state at approximately 1/3rd of the maximu m rate. Cell viability was > 97% by try pan […]
killing. […]

[2] = Stability in mouse plasma (QC samples); assay type: physicochemical
From the text: using octa-deuterated internal standards of SN30000, M13 and M14 synthesised as previously reported (Wang et al., 2012). Intra- and inter-day precision (expressed as relative standard deviation (RSD) and accuracy (expressed as percentage of the nominal value) were deter mined by analy sis of replicates (n=6) of low and high quality control (QC) samples on three different days. The lower limit of quantitation (LLOQ) was defined as the lowest concentration providing RSD and accuracy < 20%. Recovery from plasma and liver ho mogenates was tested at the three QC levels. The recoveries were evaluated by comparing extracted samples with blank extracted solutions spiked with analytes of the same amount.
Matrix effects, defined as the change in response due to the presence of other substances in the samples, were evaluated by comparing the analytes diluted into the blank plasma or liver extracted solution with that of the same stock solutions diluted in water. Three different concentration levels (low, medium and high QC) were evaluated by analysing three samples at each level. Accuracy , precision, recovery and matrix effects were all acceptable over the concentration ranges evaluated for plas ma (Supplementary Table 1) and for liver homogenates (Supplementary Table 2).
Stability of the analytes in mouse plasma (Supplementary Table 3) or liver homogenate (Supplementary Table 4) was confirmed during holding of QC samples on ice for up to 2 h under nor mal laboratory lighting, although there was a trend towards loss of SN30000 in plasma samples held in clear microcentrifuge tubes which may reflect the known photosensitivity of the compound (Gu et al., 2014). This loss was reduced by use of red microcentrifuge tubes, and eliminated by black tubes. Stability in both matrices was also confir med for one month storage at -80°C and for three freeze-thaw cycles, while MeOH-deproteinised samples w ere stable for 12 h at 4°C in the autosampler (Supplementary Tables

[3] = plasma deproteinised in 3 vol MeOH, 12 h autosampler at 4°C, nominal SN30000 0.5, M14 0.25, M13 0.1 µM
[4] = plasma deproteinised in 3 vol MeOH, 12 h autosampler at 4°C, nominal SN30000 5, M14 2.5, M13 1 µM
[5] = plasma deproteinised in 3 vol MeOH, 12 h autosampler at 4°C, nominal SN30000 50, M14 25, M13 10 µM
[6] = plasma, 1 month at -80°C, nominal SN30000 0.5, M14 0.25, M13 0.1 µM
[7] = plasma, 1 month at -80°C, nominal SN30000 5, M14 2.5, M13 1 µM
[8] = plasma, 1 month at -80°C, nominal SN30000 50, M14 25, M13 10 µM
[9] = plasma, 1 h on ice, black vial, nominal SN30000 0.5, M14 0.25, M13 0.1 µM
[10] = plasma, 1 h on ice, black vial, nominal SN30000 5, M14 2.5, M13 1 µM
[11] = plasma, 1 h on ice, black vial, nominal SN30000 50, M14 25, M13 10 µM
[12] = plasma, 1 h on ice, clear vial, nominal SN30000 0.5, M14 0.25, M13 0.1 µM
[13] = plasma, 1 h on ice, clear vial, nominal SN30000 5, M14 2.5, M13 1 µM
[14] = plasma, 1 h on ice, clear vial, nominal SN30000 50, M14 25, M13 10 µM
[15] = plasma, 1 h on ice, red vial, nominal SN30000 0.5, M14 0.25, M13 0.1 µM
[16] = plasma, 1 h on ice, red vial, nominal SN30000 5, M14 2.5, M13 1 µM
[17] = plasma, 1 h on ice, red vial, nominal SN30000 50, M14 25, M13 10 µM
[18] = plasma, 2 h on ice, black vial, nominal SN30000 0.5, M14 0.25, M13 0.1 µM
[19] = plasma, 2 h on ice, black vial, nominal SN30000 5, M14 2.5, M13 1 µM
[20] = plasma, 2 h on ice, black vial, nominal SN30000 50, M14 25, M13 10 µM
[21] = plasma, 2 h on ice, clear vial, nominal SN30000 0.5, M14 0.25, M13 0.1 µM
[22] = plasma, 2 h on ice, clear vial, nominal SN30000 5, M14 2.5, M13 1 µM
[23] = plasma, 2 h on ice, clear vial, nominal SN30000 50, M14 25, M13 10 µM
[24] = plasma, 2 h on ice, red vial, nominal SN30000 0.5, M14 0.25, M13 0.1 µM
[25] = plasma, 2 h on ice, red vial, nominal SN30000 5, M14 2.5, M13 1 µM
[26] = plasma, 2 h on ice, red vial, nominal SN30000 50, M14 25, M13 10 µM
[27] = plasma, three freeze-thaw cycles, nominal SN30000 0.5, M14 0.25, M13 0.1 µM
[28] = plasma, three freeze-thaw cycles, nominal SN30000 5, M14 2.5, M13 1 µM
[29] = plasma, three freeze-thaw cycles, nominal SN30000 50, M14 25, M13 10 µM

[O-][n+]1nc(CCCN2CCOCC2)nc2cc3c(cc21)CCC3 [M14]
Cmax ([1]; brain): 260 ± 29 µM
half-life ([1]; brain): 20.1 min
Cmax ([1]; liver): 319 ± 46.1 µM
half-life ([1]; liver): 25.1 min
Cmax ([1]; plasma): 95.6 ± 9.8 µM
half-life ([1]; plasma): 30.8 min
AUC ([1]; brain): 108.3 µmol·h/kg
AUC ([1]; liver): 131.1 µmol·h/kg
AUC ([1]; plasma): 36.6 µmol·h/kg
Non-respiratory O2 consumption and H2O2 generation (redox cycling) (CHO/POR cells): much lower rates than for SN30000
Bias [2, 3]: -3.45%
Measured conc [2, 3]: 0.24 µM
Bias [2, 4]: -1.00%
Measured conc [2, 4]: 2.48 µM
Bias [2, 5]: 5.16%
Measured conc [2, 5]: 26.29 µM
Bias [2, 6]: 1.83%
Measured conc [2, 6]: 0.23 µM
Bias [2, 7]: 1.63%
Measured conc [2, 7]: 2.42 µM
Bias [2, 8]: 1.59%
Measured conc [2, 8]: 26.65 µM
Bias [2, 9]: -6.07%
Measured conc [2, 9]: 0.23 µM
Bias [2, 10]: -9.84%
Measured conc [2, 10]: 2.25 µM
Bias [2, 11]: 3.20%
Measured conc [2, 11]: 25.80 µM
Bias [2, 12]: -6.07%
Measured conc [2, 12]: 0.23 µM
Bias [2, 13]: -2.06%
Measured conc [2, 13]: 2.45 µM
Bias [2, 14]: -2.50%
Measured conc [2, 14]: 24.37 µM
Bias [2, 15]: -3.25%
Measured conc [2, 15]: 0.24 µM
Bias [2, 16]: -4.29%
Measured conc [2, 16]: 2.39 µM
Bias [2, 17]: 0.26%
Measured conc [2, 17]: 25.07 µM
Bias [2, 18]: -2.23%
Measured conc [2, 18]: 0.24 µM
Bias [2, 19]: -2.62%
Measured conc [2, 19]: 2.43 µM
Bias [2, 20]: -2.33%
Measured conc [2, 20]: 24.42 µM
Bias [2, 21]: -5.90%
Measured conc [2, 21]: 0.24 µM
Bias [2, 22]: 0.51%
Measured conc [2, 22]: 2.51 µM
Bias [2, 23]: -2.43%
Measured conc [2, 23]: 24.39 µM
Bias [2, 24]: -3.27%
Measured conc [2, 24]: 0.24 µM
Bias [2, 25]: -0.72%
Measured conc [2, 25]: 2.48 µM
Bias [2, 26]: 0.70%
Measured conc [2, 26]: 25.17 µM
Bias [2, 27]: -4.07%
Measured conc [2, 27]: 0.24 µM
Bias [2, 28]: -3.19%
Measured conc [2, 28]: 2.42 µM
Bias [2, 29]: 3.92%
Measured conc [2, 29]: 25.98 µM
